The results in this text go back to US8501715B2, “Oxidized lipids and uses thereof in the treatment of inflammatory diseases and disorders” (Vascular Biogenics Ltd., priority 2003, dated 2013).

Assay [1] deals with Apo-E KO mice. In words: Assessment of atherosclerosis: lesion area in the aortic sinus. The class given is in vivo, mouse.
For assay [2], the system named is IL-12. In words: RT-PCR cytokine expression in the aorta: IL-12. The class given is in vivo. The settings on record: oral 1 mg/mouse 5 times every other day, 8 weeks after final administration. Here is the method: (§1) The effect of ALLE, CI-201, its corresponding acetal derivatives Et-acetal and Me-acetal (Compounds IIa and IIb, FIG. 10) and oxLDL on cytokine expression in the target organ—the aorta—was evaluated using RT-PCR as described hereinabove. […] Oral administrations took place 5 times every other day.

Assay [3] concerns IL-10. In words: RT-PCR cytokine expression in the aorta: IL-10. To be noted: oral 1 mg/mouse 5 times every other day, 8 weeks after final administration. The class given is in vivo, mouse. Here is the method:
as §1

Assay [4] relates to IFN-γ. In words: RT-PCR cytokine expression in the aorta: IFN-γ. It is filed as in vivo. To be noted: oral 1 mg/mouse 5 times every other day, 8 weeks after final administration. How it is done: as §1
Assay [5] has as its system IL12p40. In words: p40 production by activated BMDC's (ELISA). The class given is cell-based, mouse. The settings on record: BMDC's, 1 h pre-incubation, PGN 10 μg/ml, 24 hours; preliminary results. (An ELISA detects its analyte on a solid surface through an enzyme-linked reagent.)

As for 2,5′-Aldehyde Lecithin Ether [ALLE], the protection from atherogenesis result in assay [1] (ALLE by both oral (1 mg/mouse) and nasal (10 μg/mouse) administrations) was “approximately 50%”. Further, the “protection from atherosclerotic lesion formation” value in assay [1] (i.p. immunization with ALLE (mixture of D- and L-)) was more than 50%. The Lesion size in assay [1] (i.p. immunization x4 every 2 weeks (ALLE 150 μg/mouse coupled to PPD; PPD alone), 4.5 weeks post 4th immunization) was determined as 101000 ± 8276 μm^2; in assay [1] (nasal 10 μg/mouse L-ALLE every other day for 3 days, 8 weeks after last exposure), 82708 ± 10986 μm^2; in assay [1] (oral 10 μg/mouse L-ALLE+D-ALLE every other day for 5 days, 8 weeks after last feeding), 103889 ± 14320 μm^2; in assay [1] (oral 1 mg/mouse L-ALLE every other day for 5 days, 8 weeks after last feeding), 76944 ± 17072 μm^2; in assay [1] (oral 1 mg/mouse L-ALLE+D-ALLE every other day for 5 days, 8 weeks after last feeding), 85278 ± 11633 μm^2. Further, in assay [1] (oral administration), the “atherogenesis in Apo-E KO mice, oral administration (summary of earlier examples)” value was “substantially inhibited atherogenesis”. Further, the protection from atherosclerosis in assay [1] (oral administration of ALLE, 10 μg-1 mg/mouse) is reported as more than 50%. In assay [2], the “IL-12 expression in the aorta versus PBS” value is “reduced levels”. For the same compound, the “IL-10 expression in the aorta versus PBS” value in assay [3] is listed as “elevated levels”. Further, the “IFN-γ expression in the aorta versus PBS” value in assay [4] was “Reduced expression levels”.

Consider `C=CCCCCO[C@H](COCCCCCCCCCCCCCCCC)COP(=O)([O-])OCC[N+](C)(C)C` [Compound V, 1-Hexadecyl-2-(5′-hexenyl)-sn-glycero-3-phosphocholine], for which the atherogenesis progression entry in assay [1] (oral 0.1 μg/dose, 3 monthly sets of 5 administrations) was “did not effect atherogenesis progression”. In addition, the Sinus Lesion in assay [1] (oral 0.1 μg/dose, 3 monthly sets of 5 administrations, 12 weeks, 23-26 weeks old mice, no statistical difference to PBS) was determined as 238000 ± 32200 µm²; in assay [1] (oral 0.2 mg/mouse every other day for 5 days, 8 weeks after last administration), 334622 ± 26100 μm^2; in assay [1] (oral 1 mg/mouse every other day for 5 days, 8 weeks after last administration), 361166 ± 24068 μm^2; in assay [1] (oral 5 mg/mouse every other day for 5 days, 8 weeks after last administration), 307291 ± 22689 μm^2. The effect on atherogenesis result in assay [1] (oral 0.2-5 mg/mouse every other day for 5 days) is “no effect”.

Regarding `CCCCCCCCCCCCCCCCOC[C@H](COP(=O)([O-])OCC[N+](C)(C)C)OC(=O)CCC` [PAF2C, 1-O-Hexadecyl-2-O-Butyroyl-sn-Glycero-3-Phosphocholine, reference compound], the “p40 production / p40 inhibition, structure-function analysis” value (“p40 production / p40 inhibition” below) in assay [5] was “efficient in p40 inhibition”.

As for `CCCCCCCCCCCCCCCCOC[C@H](COP(=O)([O-])OCC[N+](C)(C)C)OC(C)=O` [PAF, 1-O-Hexadecyl-2-Acetoyl-sn-Glycero-3-Phosphocholine, reference compound], the “p40 production / p40 inhibition” value in assay [5] was “efficient in p40 inhibition”.

As for `CCCCCCCCCCCCCCCCOCC(COP(=O)([O-])OCC[N+](C)(C)C)OCCCCC(=O)OC` (centres unmarked) [methyl ester of CI-201], in assay [5], the “p40 production / p40 inhibition” value is listed as “restored p40 production”.

Consider `CCCCCCCCCCCCCCCCOCC(CO)OCCCCC(=O)O` (centres unmarked) [non phosphorylated metabolite of CI-201], for which the “p40 production / p40 inhibition” value in assay [5] is recorded as “restored p40 production”.

Turning to `CCCCCCCCCCCCCCCCOC[C@H](COP(=O)(O)OCCN)OCCCCC(=O)O` [phosphoethanol amine, 1-O-Hexadecyl-2-(4′-carboxybutyl)-sn-Glycero-3-Phosphoethanolamine], in assay [5], the “p40 production / p40 inhibition” value is “did not alter the molecule's p40 inhibitory effect”.
